Test results as given in paper PMC10539361, “Allosteric modulation of the fish taste receptor type 1 (T1R) family by the extracellular chloride ion” (Scientific Reports, 2023).

Key:
zfT1R2b/zfT1R3 [1] = target: T1, zfT1R2b/zfT1R3 (Danio rerio, UniProt A0A8M1NDZ5+Q2MHK9); experiment: cell-based
T1 sequence (A0A8M1NDZ5 18-823): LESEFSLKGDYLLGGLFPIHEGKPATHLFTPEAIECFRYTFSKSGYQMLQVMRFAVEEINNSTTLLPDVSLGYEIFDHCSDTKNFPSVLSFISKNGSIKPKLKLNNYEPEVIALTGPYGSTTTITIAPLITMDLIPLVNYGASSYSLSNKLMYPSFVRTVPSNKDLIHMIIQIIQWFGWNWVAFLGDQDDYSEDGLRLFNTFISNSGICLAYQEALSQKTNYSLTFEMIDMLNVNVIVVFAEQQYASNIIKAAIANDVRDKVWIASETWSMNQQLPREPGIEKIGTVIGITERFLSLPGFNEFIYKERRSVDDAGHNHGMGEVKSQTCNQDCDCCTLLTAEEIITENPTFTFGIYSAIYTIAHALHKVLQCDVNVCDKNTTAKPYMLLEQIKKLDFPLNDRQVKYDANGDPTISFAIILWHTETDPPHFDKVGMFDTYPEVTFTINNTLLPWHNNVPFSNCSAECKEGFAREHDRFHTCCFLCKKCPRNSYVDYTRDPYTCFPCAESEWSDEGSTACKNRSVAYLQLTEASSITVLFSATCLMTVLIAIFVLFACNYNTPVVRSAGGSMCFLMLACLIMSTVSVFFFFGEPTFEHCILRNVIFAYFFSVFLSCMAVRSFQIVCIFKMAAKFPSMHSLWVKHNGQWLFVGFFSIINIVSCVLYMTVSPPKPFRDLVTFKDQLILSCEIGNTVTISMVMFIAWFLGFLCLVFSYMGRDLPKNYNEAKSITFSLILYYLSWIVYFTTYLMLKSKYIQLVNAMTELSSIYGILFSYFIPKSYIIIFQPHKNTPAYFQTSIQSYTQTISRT
T1 sequence (Q2MHK9 25-850): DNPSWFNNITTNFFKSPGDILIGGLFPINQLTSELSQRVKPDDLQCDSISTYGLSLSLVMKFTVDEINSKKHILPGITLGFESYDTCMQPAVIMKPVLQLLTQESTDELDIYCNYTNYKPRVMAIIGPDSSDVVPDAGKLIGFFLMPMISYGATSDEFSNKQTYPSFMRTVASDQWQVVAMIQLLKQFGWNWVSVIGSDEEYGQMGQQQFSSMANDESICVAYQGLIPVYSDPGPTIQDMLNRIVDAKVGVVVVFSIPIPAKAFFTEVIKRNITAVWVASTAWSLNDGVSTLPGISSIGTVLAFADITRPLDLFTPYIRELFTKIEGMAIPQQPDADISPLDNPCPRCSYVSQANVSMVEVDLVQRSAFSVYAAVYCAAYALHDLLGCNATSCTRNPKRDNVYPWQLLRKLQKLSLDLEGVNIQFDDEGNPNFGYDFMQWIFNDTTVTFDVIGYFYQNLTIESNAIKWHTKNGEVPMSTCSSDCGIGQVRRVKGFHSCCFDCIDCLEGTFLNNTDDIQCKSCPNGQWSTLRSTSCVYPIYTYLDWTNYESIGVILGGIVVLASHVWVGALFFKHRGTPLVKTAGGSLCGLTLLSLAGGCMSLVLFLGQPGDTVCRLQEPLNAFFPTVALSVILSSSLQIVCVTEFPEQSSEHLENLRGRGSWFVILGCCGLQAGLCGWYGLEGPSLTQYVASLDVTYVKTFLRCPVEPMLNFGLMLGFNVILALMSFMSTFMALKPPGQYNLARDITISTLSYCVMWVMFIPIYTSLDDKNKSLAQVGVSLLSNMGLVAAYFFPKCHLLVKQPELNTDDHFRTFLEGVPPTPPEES
Description: (§1) The buffers with lower Cl^− were prepared by progressively replacing NaCl, KCl, CaCl2 and MgCl2 in the buffer with gluconate equivalents[20]. The pH was adjusted to 7.4 with NaOH. Ligands were diluted with the assay buffers at the desired concentrations.
Measurements of the responses of the cells by cell-based assay based on the intracellular Ca^2+ mobilization were carried out as described previously with some modifications[20],[34],[46],[47]. […] The cells were seeded in 96-well plates (clear-bottomed CellBIND surface plate, Corning, Glendale, AZ, USA) coated with ε-poly-L-lysine (Cosmo Bio, Tokyo, Japan) at approximately 70,000 cells per well. After 20 h, the medium was removed and replaced with high Cl^− buffer. After 3 h 30 min incubation at 27 °C, cells were loaded with 5 µM calcium-indicator dye Fluo-8 AM (AAT Bioquest, Sunnyvale, CA, USA) diluted in high Cl^− buffer. After incubation for 30 min at 27 °C, the cells were washed with buffers containing appropriate concentrations of Cl^−. The cellular assay was initiated after 3–5 min of resting and was completed within 5 min. The measurements were made using FlexStation 3 (Molecular Devices, Sunnyvale, CA, USA) at 27 °C. Fluorescence changes (i.e., excitation at 485 nm and emission at 525 nm with a cutoff at 515 nm) were monitored at 2 s intervals. A 100-µL aliquot of assay buffer supplemented with 2 × ligands was added at 20 s, and scanning was continued for an additional 40 s. The response of each well was determined as ∆RFU (delta relative fluorescent units), which was calculated as (maximum fluorescent value)—(minimum fluorescent value). […] Such normalized data from more than three independent experiments are reported as the mean ± standard error of the mean (SEM). Dose‒response fitting curves were calculated by Prism 9 (GraphPad Software, San Diego, CA) using nonlinear regression (log(agonist) vs. response—variable slope), based on the integrated data from the several independent experiments.

mfT1R2b/mfT1R3 = experiment: Ca2+ mobilization dose-response assay, stable cells expressing mfT1R2b/mfT1R3 with G16gust44; conditions: 10 mM vs 141.4 mM Cl- buffer
Description: as §1
(§2) Measurements of the responses of the cells by cell-based assay based on the intracellular Ca^2+ mobilization were carried out as described previously with some modifications[20],[34],[46],[47]. […] The cells were seeded in 96-well plates (clear-bottomed CellBIND surface plate, Corning, Glendale, AZ, USA) coated with ε-poly-L-lysine (Cosmo Bio, Tokyo, Japan) at approximately 70,000 cells per well. After 20 h, the medium was removed and replaced with high Cl^− buffer. […] Fluorescence changes (i.e., excitation at 485 nm and emission at 525 nm with a cutoff at 515 nm) were monitored at 2 s intervals. […] The response of each well was determined as ∆RFU (delta relative fluorescent units), which was calculated as (maximum fluorescent value)—(minimum fluorescent value). […] Dose‒response fitting curves were calculated by Prism 9 (GraphPad Software, San Diego, CA) using nonlinear regression (log(agonist) vs. response—variable slope), based on the integrated data from the several independent experiments.

mfT1R2b E260A/mfT1R3 = type: cell-based, medaka fish; conditions: 10 mM vs high Cl- buffer
Description: as §1, §2

mfT1R2b/mfT1R3 T105E = mfT1R2b/mfT1R3 T105E (Oryzias latipes, UniProt Q2MHK2+Q2MHK4, Q2MHK2:T105E); experiment: cell-based; conditions: EC50, [Cl-]o=10 mM; unit inferred
Description: as §1
Measurements of the responses of the cells by cell-based assay based on the intracellular Ca^2+ mobilization were carried out as described previously with some modifications[20],[34],[46],[47]. Cell lines stably expressing T1R2, T1R3 and chimeric G-protein α-subunit, G16gust44[48], were constructed using the Flp-In pcDNA5/FRT complete system (Thermo Fisher Scientific, Waltham, MA, USA) described in our previous studies[34],[46]. […] Fluorescence changes (i.e., excitation at 485 nm and emission at 525 nm with a cutoff at 515 nm) were monitored at 2 s intervals. […] The response of each well was determined as ∆RFU (delta relative fluorescent units), which was calculated as (maximum fluorescent value)—(minimum fluorescent value). […] Dose‒response fitting curves were calculated by Prism 9 (GraphPad Software, San Diego, CA) using nonlinear regression (log(agonist) vs. response—variable slope), based on the integrated data from the several independent experiments.

zfT1R2b/zfT1R3 [2] = target: T1, zfT1R2b/zfT1R3; experiment: Effect of anions, cations and osmotic pressure on cellular responses, cells in 10 mM Cl- buffer, zfT1R2b/zfT1R3; type: cell-based, zebrafish; conditions: coapplied with 2 mM L-Ala, increasing salt concentration
Description: Cells were seeded in 96-well plates coated with ε-poly-L-lysine at approximately 70,000 cells per well. […] Fluorescence changes were monitored at 2 s intervals, as described above. […] Three independent experiments were conducted for each receptor, and representative results are shown as the mean ± SEM (n = 3 replicates). Statistical tests were conducted using KyPlot version 6.0 (KyensLab Inc., Tokyo, Japan). Statistical significance was set at p < 0.05.

Sequence of mfT1R2b/mfT1R3 T105E (Q2MHK2 entry or part of it T105E): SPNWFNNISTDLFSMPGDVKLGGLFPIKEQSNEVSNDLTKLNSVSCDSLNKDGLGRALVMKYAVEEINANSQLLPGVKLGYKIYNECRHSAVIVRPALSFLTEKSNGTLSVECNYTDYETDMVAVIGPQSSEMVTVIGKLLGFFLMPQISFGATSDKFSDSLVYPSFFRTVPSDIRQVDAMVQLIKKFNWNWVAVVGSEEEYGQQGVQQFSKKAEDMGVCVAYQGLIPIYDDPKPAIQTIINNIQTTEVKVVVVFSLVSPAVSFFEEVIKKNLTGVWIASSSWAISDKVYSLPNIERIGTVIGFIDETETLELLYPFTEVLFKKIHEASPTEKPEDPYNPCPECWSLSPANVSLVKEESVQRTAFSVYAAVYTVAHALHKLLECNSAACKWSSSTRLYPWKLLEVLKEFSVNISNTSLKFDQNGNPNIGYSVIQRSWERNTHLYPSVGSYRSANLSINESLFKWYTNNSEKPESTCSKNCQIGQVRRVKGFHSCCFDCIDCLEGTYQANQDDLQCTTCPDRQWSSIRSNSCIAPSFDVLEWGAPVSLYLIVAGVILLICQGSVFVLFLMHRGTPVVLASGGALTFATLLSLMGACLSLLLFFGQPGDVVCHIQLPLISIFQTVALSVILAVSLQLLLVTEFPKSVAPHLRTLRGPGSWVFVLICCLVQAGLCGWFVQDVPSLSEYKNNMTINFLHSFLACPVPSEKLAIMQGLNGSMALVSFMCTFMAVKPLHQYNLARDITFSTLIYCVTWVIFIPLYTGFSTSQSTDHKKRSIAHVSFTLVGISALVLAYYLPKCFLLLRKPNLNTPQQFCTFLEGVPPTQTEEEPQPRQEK
Sequence of mfT1R2b/mfT1R3 T105E (Q2MHK4 entry or part of it): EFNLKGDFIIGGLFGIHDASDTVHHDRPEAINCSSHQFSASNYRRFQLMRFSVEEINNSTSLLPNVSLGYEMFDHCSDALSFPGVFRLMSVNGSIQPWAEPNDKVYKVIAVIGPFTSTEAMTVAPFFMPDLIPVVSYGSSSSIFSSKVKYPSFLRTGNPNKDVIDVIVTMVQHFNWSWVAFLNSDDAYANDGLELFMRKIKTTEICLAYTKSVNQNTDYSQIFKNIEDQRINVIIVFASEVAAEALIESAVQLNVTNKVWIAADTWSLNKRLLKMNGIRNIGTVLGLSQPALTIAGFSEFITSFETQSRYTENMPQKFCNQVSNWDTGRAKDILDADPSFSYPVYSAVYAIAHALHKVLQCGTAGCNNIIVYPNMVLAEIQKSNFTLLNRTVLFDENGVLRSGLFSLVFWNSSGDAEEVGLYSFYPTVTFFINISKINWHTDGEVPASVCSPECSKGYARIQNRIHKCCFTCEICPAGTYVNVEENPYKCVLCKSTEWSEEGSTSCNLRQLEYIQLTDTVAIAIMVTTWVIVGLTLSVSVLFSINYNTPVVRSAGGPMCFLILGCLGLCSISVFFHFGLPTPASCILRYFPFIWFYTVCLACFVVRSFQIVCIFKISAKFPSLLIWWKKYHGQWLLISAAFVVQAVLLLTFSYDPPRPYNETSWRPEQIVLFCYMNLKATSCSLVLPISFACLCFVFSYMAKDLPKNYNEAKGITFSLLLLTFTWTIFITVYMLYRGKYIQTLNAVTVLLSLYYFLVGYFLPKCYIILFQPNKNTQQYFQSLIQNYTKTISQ

SMILES	EC50 (zfT1R2b/zfT1R3 [1]) [mM]	effect of anionic buffer composition on sensitivity (mfT1R2b/mfT1R3)	effect of [Cl-]o on sensitivity (mfT1R2b E260A/mfT1R3)	EC50 (mfT1R2b/mfT1R3 T105E) [mM]	response to fixed concentration of L-Ala on coapplication (zfT1R2b/zfT1R3 [2])
C[C@H](N)C(=O)O [L-Ala, L-alanine]	2.9	hardly affected	hardly affected	11.4	–
[Cl-].[Na+] [NaCl]	–	–	–	–	decreased
